Measured values taken from ChEMBL document CHEMBL1177794, “Broad spectrum alkynyl inhibitors of T315I Bcr-Abl” (Bioorg Med Chem Lett, 2010).

Assays:
[1] = molecular target: Mitogen-activated protein kinase 10 (Homo sapiens) (UniProt P53779); assay: Inhibition of JNK3 at 10 uM; values are per cent of control
[2] = molecular target: Muscle, skeletal receptor tyrosine-protein kinase (Homo sapiens) (UniProt O15146); assay: Inhibition of MUSK at 10 uM
[3] = test system: Tyrosine-protein kinase ABL1 (Homo sapiens), P00519 [T315I]; assay: Inhibition of non phosphorylated ABL1 T315I mutant at 10 uM; conditions: values are per cent of control
[4] = molecular target: Serine/threonine-protein kinase Nek1 (Homo sapiens) (UniProt Q96PY6); assay: Inhibition of NEK1 at 10 uM
[5] = molecular target: SRSF protein kinase 2 (Homo sapiens) (UniProt P78362); assay: Inhibition of SRPK2 at 10 uM
[6] = molecular target: Serine/threonine-protein kinase BRSK1 (Homo sapiens) (UniProt Q8TDC3); assay: Inhibition of BRSK1 at 10 uM; conditions: values are per cent of control
[7] = molecular target: Homeodomain-interacting protein kinase 1 (Homo sapiens) (UniProt Q86Z02); assay: Inhibition of HIPK1 at 10 uM; conditions: values are per cent of control
Sequence of Homeodomain-interacting protein kinase 1 (Homo sapiens) (Q86Z02 whole entry, looked up): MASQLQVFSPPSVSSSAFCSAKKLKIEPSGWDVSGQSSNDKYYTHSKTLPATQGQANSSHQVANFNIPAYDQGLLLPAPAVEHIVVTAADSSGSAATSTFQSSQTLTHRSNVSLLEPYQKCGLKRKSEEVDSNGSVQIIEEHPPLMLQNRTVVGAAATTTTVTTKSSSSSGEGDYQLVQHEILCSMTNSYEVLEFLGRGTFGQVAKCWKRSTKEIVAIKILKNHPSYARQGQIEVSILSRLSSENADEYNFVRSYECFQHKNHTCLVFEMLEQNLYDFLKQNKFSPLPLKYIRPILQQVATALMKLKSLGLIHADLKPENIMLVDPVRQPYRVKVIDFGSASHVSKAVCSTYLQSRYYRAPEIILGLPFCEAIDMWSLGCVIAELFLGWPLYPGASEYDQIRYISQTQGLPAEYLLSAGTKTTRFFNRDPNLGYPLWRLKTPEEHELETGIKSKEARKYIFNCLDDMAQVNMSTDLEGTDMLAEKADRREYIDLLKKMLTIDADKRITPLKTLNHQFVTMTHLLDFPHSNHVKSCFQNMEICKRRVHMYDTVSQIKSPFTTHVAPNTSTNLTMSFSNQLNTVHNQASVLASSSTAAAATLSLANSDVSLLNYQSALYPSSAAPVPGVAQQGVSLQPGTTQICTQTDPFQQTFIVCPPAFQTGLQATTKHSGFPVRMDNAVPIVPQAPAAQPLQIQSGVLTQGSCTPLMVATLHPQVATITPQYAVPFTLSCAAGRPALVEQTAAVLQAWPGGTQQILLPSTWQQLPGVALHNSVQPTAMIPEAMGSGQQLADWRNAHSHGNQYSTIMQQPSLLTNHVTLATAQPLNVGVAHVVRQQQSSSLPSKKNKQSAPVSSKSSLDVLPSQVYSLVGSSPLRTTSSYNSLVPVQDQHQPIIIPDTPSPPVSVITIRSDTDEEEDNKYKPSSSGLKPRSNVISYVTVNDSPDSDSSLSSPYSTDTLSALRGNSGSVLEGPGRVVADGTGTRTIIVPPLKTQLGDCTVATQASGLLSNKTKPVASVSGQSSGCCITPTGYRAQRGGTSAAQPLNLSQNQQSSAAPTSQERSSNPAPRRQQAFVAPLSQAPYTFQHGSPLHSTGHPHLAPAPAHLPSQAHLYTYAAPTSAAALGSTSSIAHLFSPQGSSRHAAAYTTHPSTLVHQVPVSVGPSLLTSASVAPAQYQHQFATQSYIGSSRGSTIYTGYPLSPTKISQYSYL

[8] = molecular target: Cyclin-dependent kinase 14 (Homo sapiens) (UniProt O94921); assay: Inhibition of PFTK1 at 10 uM; conditions: values are per cent of control
[9] = molecular target: Serine/threonine-protein kinase BRSK2 (Homo sapiens) (UniProt Q8IWQ3); assay: Inhibition of BRSK2 at 10 uM; values are per cent of control
[10] = molecular target: Mitogen-activated protein kinase kinase kinase 15 (Homo sapiens) (UniProt Q6ZN16); assay: Inhibition of MAP3K15 at 10 uM; conditions: values are per cent of control
[11] = molecular target: Ribosomal protein S6 kinase beta-1 (Homo sapiens) (UniProt P23443); assay: Inhibition of S6K1 at 10 uM
Sequence of Ribosomal protein S6 kinase beta-1 (Homo sapiens) (P23443 whole entry, looked up): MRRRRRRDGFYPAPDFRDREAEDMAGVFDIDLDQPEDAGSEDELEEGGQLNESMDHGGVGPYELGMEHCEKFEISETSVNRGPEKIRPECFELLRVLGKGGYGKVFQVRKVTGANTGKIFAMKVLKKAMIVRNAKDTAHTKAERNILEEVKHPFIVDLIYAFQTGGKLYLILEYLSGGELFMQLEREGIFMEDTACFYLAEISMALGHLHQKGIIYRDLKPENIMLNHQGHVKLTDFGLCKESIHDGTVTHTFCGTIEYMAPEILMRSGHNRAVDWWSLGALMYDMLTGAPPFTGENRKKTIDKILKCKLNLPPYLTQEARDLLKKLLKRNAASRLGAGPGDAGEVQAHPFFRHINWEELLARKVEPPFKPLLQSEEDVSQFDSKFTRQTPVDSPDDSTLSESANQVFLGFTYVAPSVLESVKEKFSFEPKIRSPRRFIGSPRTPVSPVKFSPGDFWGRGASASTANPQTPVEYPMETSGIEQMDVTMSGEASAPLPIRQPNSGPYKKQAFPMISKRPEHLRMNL

[12] = test system: Tyrosine-protein kinase ABL1 (Homo sapiens), P00519 [F317L]; assay: Inhibition of non phosphorylated ABL1 F317L mutant at 10 uM; conditions: values are per cent of control
[13] = molecular target: Cyclin-dependent kinase 7 (Homo sapiens) (UniProt P50613); assay: Inhibition of CDK7 at 10 uM; values are per cent of control
[14] = molecular target: Serine/threonine-protein kinase 33 (Homo sapiens) (UniProt Q9BYT3); assay: Inhibition of STK33 at 10 uM
[15] = molecular target: Serine/threonine-protein kinase SIK1 (Homo sapiens) (UniProt P57059); assay: Inhibition of SIK at 10 uM; values are per cent of control
[16] = molecular target: Mitogen-activated protein kinase kinase kinase kinase 5 (Homo sapiens) (UniProt Q9Y4K4); assay: Inhibition of MAP4K5 at 10 uM; conditions: values are per cent of control
[17] = molecular target: Mitogen-activated protein kinase kinase kinase 1 (Homo sapiens) (UniProt Q13233); assay: Inhibition of MAP3K1 at 10 uM; conditions: values are per cent of control
[18] = molecular target: Serine/threonine-protein kinase pim-2 (Homo sapiens) (UniProt Q9P1W9); assay: Inhibition of PIM2 at 10 uM
Sequence of Serine/threonine-protein kinase pim-2 (Homo sapiens) (Q9P1W9 whole entry, looked up): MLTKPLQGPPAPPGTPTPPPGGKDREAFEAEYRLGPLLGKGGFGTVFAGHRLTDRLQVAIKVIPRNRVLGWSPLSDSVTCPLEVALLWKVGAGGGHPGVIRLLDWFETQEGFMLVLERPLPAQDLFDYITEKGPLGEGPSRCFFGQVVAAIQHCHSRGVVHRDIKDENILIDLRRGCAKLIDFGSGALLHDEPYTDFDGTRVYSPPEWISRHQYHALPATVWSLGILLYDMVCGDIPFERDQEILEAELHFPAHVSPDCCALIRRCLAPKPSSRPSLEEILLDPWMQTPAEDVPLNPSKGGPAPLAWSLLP

[19] = molecular target: Tyrosine-protein kinase ABL1 (Homo sapiens) (UniProt P00519); assay: Inhibition of non phosphorylated ABL1 at 10 uM; conditions: values are per cent of control
[20] = molecular target: Serine/threonine-protein kinase RIO3 (Homo sapiens) (UniProt O14730); assay: Inhibition of RIOK3 at 10 uM
[21] = molecular target: Phosphorylase b kinase gamma catalytic chain, skeletal muscle/heart isoform (Homo sapiens) (UniProt Q16816); assay: Inhibition of PHKG1 at 10 uM
[22] = molecular target: G protein-coupled receptor kinase 4 (Homo sapiens) (UniProt P32298); assay: Inhibition of GRK4 at 10 uM; conditions: values are per cent of control
[23] = molecular target: Homeodomain-interacting protein kinase 2 (Homo sapiens) (UniProt Q9H2X6); assay: Inhibition of HIPK2 at 10 uM; conditions: values are per cent of control
[24] = molecular target: Atypical kinase COQ8B, mitochondrial (Homo sapiens) (UniProt Q96D53); assay: Inhibition of ADCK4 at 10 uM; conditions: values are per cent of control
Sequence of Atypical kinase COQ8B, mitochondrial (Homo sapiens) (Q96D53 whole entry): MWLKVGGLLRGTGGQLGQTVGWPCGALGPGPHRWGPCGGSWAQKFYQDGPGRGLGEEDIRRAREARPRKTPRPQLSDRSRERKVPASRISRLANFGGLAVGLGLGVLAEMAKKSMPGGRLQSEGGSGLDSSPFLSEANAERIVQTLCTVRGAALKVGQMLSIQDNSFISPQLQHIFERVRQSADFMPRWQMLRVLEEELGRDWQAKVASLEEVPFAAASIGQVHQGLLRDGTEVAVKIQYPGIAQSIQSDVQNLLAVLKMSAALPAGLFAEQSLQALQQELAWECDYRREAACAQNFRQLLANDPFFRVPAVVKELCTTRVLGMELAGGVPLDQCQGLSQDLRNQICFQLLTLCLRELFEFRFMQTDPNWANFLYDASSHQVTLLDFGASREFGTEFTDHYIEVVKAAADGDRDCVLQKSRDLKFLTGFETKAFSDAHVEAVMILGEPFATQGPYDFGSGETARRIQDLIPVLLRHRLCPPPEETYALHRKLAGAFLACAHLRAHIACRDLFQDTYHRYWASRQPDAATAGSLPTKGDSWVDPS

[25] = test system: Receptor-type tyrosine-protein kinase FLT3 (Homo sapiens), P36888 [D835H]; assay: Inhibition of FLT3 D835H mutant at 10 uM; conditions: values are per cent of control
[26] = molecular target: RAC-beta serine/threonine-protein kinase (Homo sapiens) (UniProt P31751); assay: Inhibition of AKT2 at 10 uM; conditions: values are per cent of control
[27] = molecular target: Serine/threonine-protein kinase OSR1 (Homo sapiens) (UniProt O95747); assay: Inhibition of OSR1 at 10 uM
[28] = molecular target: Cyclin-dependent kinase 15 (Homo sapiens) (UniProt Q96Q40); assay: Inhibition of PFTAIRE2 at 10 uM; conditions: values are per cent of control
[29] = molecular target: Cyclin-dependent kinase-like 5 (Homo sapiens) (UniProt O76039); assay: Inhibition of CDKL5 at 10 uM; conditions: values are per cent of control
[30] = molecular target: Dual specificity mitogen-activated protein kinase kinase 2 (Homo sapiens) (UniProt P36507); assay: Inhibition of MEK2 at 10 uM; conditions: values are per cent of control
[31] = test system: Epidermal growth factor receptor (Homo sapiens), P00533 [G719C]; assay: Inhibition of EGFR G719C mutant at 10 uM; values are per cent of control
[32] = molecular target: Mitogen-activated protein kinase kinase kinase 12 (Homo sapiens) (UniProt Q12852); assay: Inhibition of DLK at 10 uM; values are per cent of control
[33] = molecular target: Non-receptor tyrosine-protein kinase TNK1 (Homo sapiens) (UniProt Q13470); assay: Inhibition of TNK1 at 10 uM; conditions: values are per cent of control
Sequence of Non-receptor tyrosine-protein kinase TNK1 (Homo sapiens) (Q13470 whole entry): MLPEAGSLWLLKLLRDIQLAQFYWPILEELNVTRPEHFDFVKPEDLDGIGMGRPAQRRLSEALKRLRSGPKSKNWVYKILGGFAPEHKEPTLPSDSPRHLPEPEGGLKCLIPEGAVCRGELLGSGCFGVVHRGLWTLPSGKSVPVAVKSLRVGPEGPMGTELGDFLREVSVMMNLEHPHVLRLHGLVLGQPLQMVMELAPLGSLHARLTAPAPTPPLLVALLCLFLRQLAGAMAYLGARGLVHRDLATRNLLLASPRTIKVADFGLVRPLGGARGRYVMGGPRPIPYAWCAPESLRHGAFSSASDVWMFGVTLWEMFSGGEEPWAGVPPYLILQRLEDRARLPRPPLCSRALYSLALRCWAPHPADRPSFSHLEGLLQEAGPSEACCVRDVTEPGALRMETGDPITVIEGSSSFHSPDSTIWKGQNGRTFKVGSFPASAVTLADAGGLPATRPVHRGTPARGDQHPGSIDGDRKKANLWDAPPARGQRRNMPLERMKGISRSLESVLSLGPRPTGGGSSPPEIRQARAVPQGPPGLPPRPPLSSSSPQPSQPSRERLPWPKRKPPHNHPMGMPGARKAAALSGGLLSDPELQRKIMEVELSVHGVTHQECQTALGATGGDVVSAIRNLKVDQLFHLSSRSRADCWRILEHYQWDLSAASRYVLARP

[34] = molecular target: NUAK family SNF1-like kinase 1 (Homo sapiens) (UniProt O60285); assay: Inhibition of ARK5 at 10 uM; values are per cent of control
Sequence of NUAK family SNF1-like kinase 1 (Homo sapiens) (O60285 whole entry): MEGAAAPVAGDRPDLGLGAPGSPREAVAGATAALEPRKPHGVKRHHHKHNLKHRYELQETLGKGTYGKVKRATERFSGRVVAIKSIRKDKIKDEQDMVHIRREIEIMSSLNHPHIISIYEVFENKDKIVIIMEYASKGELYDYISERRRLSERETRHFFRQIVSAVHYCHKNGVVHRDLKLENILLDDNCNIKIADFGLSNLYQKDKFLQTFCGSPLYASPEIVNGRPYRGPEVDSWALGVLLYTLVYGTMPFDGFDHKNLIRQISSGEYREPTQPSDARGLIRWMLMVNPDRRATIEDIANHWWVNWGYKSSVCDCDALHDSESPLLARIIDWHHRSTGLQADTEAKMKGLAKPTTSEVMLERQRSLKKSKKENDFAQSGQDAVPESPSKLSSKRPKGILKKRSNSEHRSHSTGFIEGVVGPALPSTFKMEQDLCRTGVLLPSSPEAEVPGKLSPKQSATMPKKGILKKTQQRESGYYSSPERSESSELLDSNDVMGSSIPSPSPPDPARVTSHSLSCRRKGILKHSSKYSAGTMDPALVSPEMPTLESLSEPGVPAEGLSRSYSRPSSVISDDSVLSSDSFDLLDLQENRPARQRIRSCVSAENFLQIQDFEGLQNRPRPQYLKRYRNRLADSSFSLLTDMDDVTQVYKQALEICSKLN

[35] = molecular target: Eukaryotic translation initiation factor 2-alpha kinase 1 (Homo sapiens) (UniProt Q9BQI3); assay: Inhibition of EIF2AK1 at 10 uM; conditions: values are per cent of control
Sequence of Eukaryotic translation initiation factor 2-alpha kinase 1 (Homo sapiens) (Q9BQI3 whole entry): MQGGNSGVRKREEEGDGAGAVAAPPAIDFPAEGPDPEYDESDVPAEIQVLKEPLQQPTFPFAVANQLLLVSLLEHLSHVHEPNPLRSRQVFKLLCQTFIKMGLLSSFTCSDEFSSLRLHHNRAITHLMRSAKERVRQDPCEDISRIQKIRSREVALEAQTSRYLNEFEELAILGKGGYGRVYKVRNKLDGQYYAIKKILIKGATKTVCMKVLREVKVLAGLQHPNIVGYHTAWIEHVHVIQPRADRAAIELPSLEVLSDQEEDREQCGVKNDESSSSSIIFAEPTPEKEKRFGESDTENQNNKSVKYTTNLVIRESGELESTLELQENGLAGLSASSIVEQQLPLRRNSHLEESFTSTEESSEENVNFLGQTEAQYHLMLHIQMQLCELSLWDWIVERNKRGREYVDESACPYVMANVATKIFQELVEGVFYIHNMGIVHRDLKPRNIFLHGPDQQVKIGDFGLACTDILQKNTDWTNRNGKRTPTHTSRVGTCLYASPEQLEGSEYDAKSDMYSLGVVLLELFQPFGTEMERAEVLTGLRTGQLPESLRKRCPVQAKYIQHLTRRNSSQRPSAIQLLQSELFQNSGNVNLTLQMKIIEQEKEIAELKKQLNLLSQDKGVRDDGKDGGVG

[36] = molecular target: Death-associated protein kinase 3 (Homo sapiens) (UniProt O43293); assay: Inhibition of DAPK3 at 10 uM; conditions: values are per cent of control
Sequence of Death-associated protein kinase 3 (Homo sapiens) (O43293 whole entry, looked up): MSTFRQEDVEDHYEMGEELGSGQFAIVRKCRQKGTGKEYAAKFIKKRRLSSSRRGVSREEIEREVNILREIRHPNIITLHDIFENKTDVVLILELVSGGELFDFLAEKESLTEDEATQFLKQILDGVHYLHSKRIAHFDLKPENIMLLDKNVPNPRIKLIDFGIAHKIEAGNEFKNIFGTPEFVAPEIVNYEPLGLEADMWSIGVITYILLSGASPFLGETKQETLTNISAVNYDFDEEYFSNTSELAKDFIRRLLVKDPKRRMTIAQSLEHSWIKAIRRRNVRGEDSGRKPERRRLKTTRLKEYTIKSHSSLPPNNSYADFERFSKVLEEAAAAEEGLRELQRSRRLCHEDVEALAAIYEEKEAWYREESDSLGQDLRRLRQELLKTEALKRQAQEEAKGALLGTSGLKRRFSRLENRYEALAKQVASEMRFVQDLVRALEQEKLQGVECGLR

[37] = molecular target: Serine/threonine-protein kinase PAK 2 (Homo sapiens) (UniProt Q13177); assay: Inhibition of PAK2 at 10 uM
[38] = molecular target: Phosphatidylinositol 4,5-bisphosphate 3-kinase catalytic subunit alpha isoform (Homo sapiens) (UniProt P42336); assay: Inhibition of PIK3CA at 10 uM; values are per cent of control
[39] = test system: Phosphatidylinositol 4,5-bisphosphate 3-kinase catalytic subunit alpha isoform (Homo sapiens), P42336 [H1047L]; assay: Inhibition of PIK3CA H1047L mutant at 10 uM
[40] = molecular target: Membrane-associated tyrosine- and threonine-specific cdc2-inhibitory kinase (Homo sapiens) (UniProt Q99640); assay: Inhibition of PKMYT1 at 10 uM
[41] = molecular target: 5'-AMP-activated protein kinase catalytic subunit alpha-1 (Homo sapiens) (UniProt Q13131); assay: Inhibition of AMPK-alpha1 at 10 uM; conditions: values are per cent of control
[42] = molecular target: TGF-beta receptor type-2 (Homo sapiens) (UniProt P37173); assay: Inhibition of TGFBR2 at 10 uM

CCN1CCN(Cc2ccc(NC(=O)c3ccc(C)c(C#Cc4cnc5[nH]ccc5c4)c3)cc2C(F)(F)F)CC1
level, % of control [1]: 1.8% | inhibition [2]: 0% | residual binding, % of control [3]: 2.4% | inhibition [4]: 50% | inhibition [5]: 63% | residual binding, % of control [6]: 100% | residual binding, % of control [7]: 48% | residual binding, % of control [8]: 1.6% | level, % of control [9]: 90% | residual binding, % of control [10]: 72% | inhibition [11]: 3.2% | residual binding, % of control [12]: 0% | level, % of control [13]: 4% | inhibition [14]: 6.8% | % of control [15]: 0.25% | residual binding, % of control [16]: 1.6% | residual binding, % of control [17]: 96% | inhibition [18]: 100% | residual binding, % of control [19]: 0.1% | inhibition [20]: 38% | inhibition [21]: 100% | residual binding, % of control [22]: 14% | residual binding, % of control [23]: 46% | residual binding, % of control [24]: 82% | residual binding, % of control [25]: 0.35% | residual binding, % of control [26]: 4.6% | inhibition [27]: 60% | residual binding, % of control [28]: 2% | residual binding, % of control [29]: 28% | residual binding, % of control [30]: 37% | level, % of control [31]: 0% | level, % of control [32]: 3.8% | residual binding, % of control [33]: 0.8% | level, % of control [34]: 95% | residual binding, % of control [35]: 72% | residual binding, % of control [36]: 96% | inhibition [37]: 76% | level, % of control [38]: 93% | inhibition [39]: 100% | inhibition [40]: 48% | residual binding, % of control [41]: 0.8% | inhibition [42]: 1.4%

CCN1CCN(Cc2ccc(NC(=O)c3ccc(C)c(C#Cc4cccnc4)c3)cc2C(F)(F)F)CC1
level, % of control [1]: 0.95% | inhibition [2]: 0.05% | residual binding, % of control [3]: 2.8% | inhibition [4]: 77% | inhibition [5]: 81% | residual binding, % of control [6]: 84% | residual binding, % of control [7]: 37% | residual binding, % of control [8]: 0.85% | level, % of control [9]: 81% | residual binding, % of control [10]: 78% | inhibition [11]: 11% | residual binding, % of control [12]: 0% | level, % of control [13]: 1.6% | inhibition [14]: 14% | % of control [15]: 0.45% | residual binding, % of control [16]: 3% | residual binding, % of control [17]: 94% | inhibition [18]: 100% | residual binding, % of control [19]: 0% | inhibition [20]: 70% | inhibition [21]: 88% | residual binding, % of control [22]: 47% | residual binding, % of control [23]: 34% | residual binding, % of control [24]: 85% | residual binding, % of control [25]: 0.15% | residual binding, % of control [26]: 30% | inhibition [27]: 48% | residual binding, % of control [28]: 6.4% | residual binding, % of control [29]: 12% | residual binding, % of control [30]: 64% | level, % of control [31]: 0.75% | level, % of control [32]: 9.8% | residual binding, % of control [33]: 0% | level, % of control [34]: 100% | residual binding, % of control [35]: 83% | residual binding, % of control [36]: 100% | inhibition [37]: 84% | level, % of control [38]: 100% | inhibition [39]: 100% | inhibition [40]: 85% | residual binding, % of control [41]: 1.2% | inhibition [42]: 1.3%
